Results published in patent US7943795B2, “Vitamin D receptor modulators” (Eli Lilly and Company, priority 2004, dated 2011).

What was measured:
VDR = biological target: T1, VDR (Homo sapiens, UniProt P11473); experiment: VDR CTF (Caco-2 cells) co-transfection assay; format: cell-based; conditions: pGal4-VDR-LBD, luciferase reporter
T1 construct: the receptor expression vector pGal4-VDR-LBD (10 ng); expressed in transfected cells; host or cells: Caco-2 cells
T1 sequence (P11473 127-423 limits assumed): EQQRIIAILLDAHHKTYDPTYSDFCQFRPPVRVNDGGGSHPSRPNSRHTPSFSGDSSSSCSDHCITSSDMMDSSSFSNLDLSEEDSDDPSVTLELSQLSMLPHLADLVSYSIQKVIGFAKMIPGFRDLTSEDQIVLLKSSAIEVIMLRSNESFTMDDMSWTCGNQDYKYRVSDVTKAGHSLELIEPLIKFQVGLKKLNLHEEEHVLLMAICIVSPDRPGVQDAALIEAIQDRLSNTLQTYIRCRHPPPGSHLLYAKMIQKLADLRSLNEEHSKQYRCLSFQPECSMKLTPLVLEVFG
Method: 3. The VDR CTF (Caco-2 cells) test is described in the “Assay” section of the Description, infra.
The Caco-2 cell assay is an indicator for the undesirable condition of hypercalcemia. This co-transfection assay is a surrogate assay for in vivo calcemic activity of VDR ligands. It is desirable to have high EC50 values for a test compound in this assay. The higher the EC50 values for a compound the less calcemic it will be in vivo. Desired assay results are EC50 greater than or equal to 300 nM. Preferred assay results are greater than 1000 nM.
Caco-2 cells, grown in phenol red free, DMEM (Invitrogen, Carlsbad, Calif.) containing 10% charcoal-stripped FBS (Hyclone, Logan, Utah), are transfected with Fugene 6 reagent (Roche Diagnostics, Indianapolis, Ind.). Cells (5000/well) are plated 18 h before transfection in a 96 well plate. The cells are transfected with Gal4-responsive reporter pFRLuc (150 ng, Stratagene, La Jolla Calif.) and the receptor expression vector pGal4-VDR-LBD (10 ng), along with Fugene 6 reagent (0.2 μl/well). The DNA-Fugene complex is formed by incubating the mixture for 30 m at room temperature. The cells are transfected in triplicate for 5 h, and treated with various concentrations of VDR ligands (from 0.01 nM to […] concentration range) 18 h post-transfection. The luciferase activity is quantified using Steady-Glo reagent kit (Promega, Madison, Wis.) as per manufacturer's specifications.

[1] = Mouse hypercalcemia assay; format: in vivo
Method: 5. The Mouse Hypercalcemia test is described in the “Assay” section of the Description, infra.
The Mouse Hypercalcemia Assay
The Mouse Hypercalcemia Assay is a six day hypercalcemia test for toxicity and selectivity. Acceptable test results are levels greater than 30 μg/kg/day. Preferred assay results are levels greater than 300 μg/kg/day.
Weanling, virus—antibody-free, five to six weeks old female DBF mice (Harlan, Indianapolis, Ind.) are used for all the studies. Animals are allowed to acclimate to local vivarium conditions for 2 days. Mice are maintained on a 12 hr light/dark cycle at 22° C. with ad lib access to food (TD 5001 with 1.2% Ca and 0.9% P, Teklad, Madison, Wis.) and water. The animals then are divided into groups with 4-5 mice per group. Different doses of test compounds prepared in 10% ethanol and 90% sesame oil, or in an aqueous suspension of sodium lauryl sulfate and CMC (the latter formulation for acidic compounds) are administered to mice orally via gavage for 6 days. 1α-25(OH)2D3 0.5 μg/kg/d was also given to one group of mice as the positive control. Serum ionized calcium is evaluated at 6 hours after the last dosing under isoflurane anesthesia by Ciba-Corning Ca++/PH Analyzer, (Model 634, Chiron Diagnostics Corp., East Walpole, Mass.). Raw data of group differences is assessed by analysis of variance (ANOVA) using Fisher's protected least significant difference (PLSD) where the significance level was P<0.05.

[2] = no effect level: highest dose that did not cause hypercalcemia, oral gavage for 6 days, female DBF mice, serum ionized calcium
[3] = female, DBF, mouse, in vivo, po, 6 days

| Compound | EC50 (VDR) | Mouse Hypercal [1, 2] | Mouse Hypercal [1, 3] |
| --- | --- | --- | --- |
| CCC(CC)(c1ccc(OCC(O)C(C)(C)C)c(C)c1)c1ccc2cc(C(=O)O)ccc2c1 (single isomer, unassigned) [Ex. 2A, 6-{1-Ethyl-1-[4-(2-hydroxy-3,3-dimethyl-butoxy)-3-methyl-phenyl]-propyl}-naphthalene-2-carboxylic acid] | 466 nM | 300 µg/kg/day |  |
| CCC(CC)(c1ccc(OCC(=O)C(C)(C)C)c(C)c1)c1ccc2cc(C(=O)O)ccc2c1 [Ex. 1, 6-{1-[4-(3,3-dimethyl-2-oxobutoxy)-3-methylphenyl]-1-ethylpropyl}naphthalene-2-carboxylic acid] | 194 nM |  | 1000 µg/kg/day |
| CCC(CC)(c1ccc(OCC(=O)C(C)(C)C)c(C)c1)c1ccc2cc(C(=O)NCC(=O)O)ccc2c1 [Ex. 3, [(6-{1-[4-(3,3-Dimethyl-2-oxo-butoxy)-3-methylphenyl]-1-ethylpropyl}naphthalene-2-carbonyl)amino]acetic acid] | 35 nM | <300 µg/kg/day |  |
| CCC(CC)(c1ccc(OCC(=O)C(C)(C)C)c(C)c1)c1ccc2cc(C(=O)N(C)C)ccc2c1 [Ex. 4, 6-{1-[4-(3,3-dimethyl-2-oxobutoxy)-3-methylphenyl]-1-ethylpropyl}naphthalene-2-carboxylic acid dimethylamide] | 550 nM |  | 1000 µg/kg/day |
| CCC(CC)(c1ccc(OCC(=O)C(C)(C)C)c(C)c1)c1ccc2cc(C(=O)N(C)CC(=O)O)ccc2c1 [Ex. 5, [(6-{1-[4-(3,3-Dimethyl-2-oxobutoxy)-3-methylphenyl]-1-ethylpropyl}naphthalene-2-carbonyl)methylamino]acetic acid] | 162 nM | <30 µg/kg/day |  |
